Drawing on BindingDB's records for doi:10.1021/jm0504961 (Merck Frosst Centre For Therapeutic Research, 2005), this text covers EC50 for 7 compounds.

The structures appear in SMILES notation. Some results are limits rather than exact numbers.

For assay [1], the target named is Cathepsin S (Mouse, UniProt O70370). The assay is described as follows: Enzyme Inhibition Assay. On the procedure:
Prior to the addition of substrate, different concentrations of the inhibitor ranging from 100 uM to 0.2 nM were preincubated for 15 min with enzyme to allow the establishment of the enzyme-inhibitor complex. […] The percent inhibition of the reaction was calculated from a control reaction containing only vehicle. IC50 curves were generated by fitting percent inhibition values to a four parameter logistic model (SOFTMAX PRO, Molecular Devices).

In another assay the target is Procathepsin L (Homo sapiens, UniProt P07711). The assay is described as follows: Enzyme Inhibition Assay and Whole Cell Enzyme Occupancy Assay. The note with it: pH 5.5; 22 °C. On the procedure: (§1) Prior to the addition of substrate, different concentrations of the inhibitor ranging from 100 uM to 0.2 nM were preincubated for 15 min with enzyme to allow the establishment of the enzyme-inhibitor complex. The proteolytic cleavage of N-acyl aminocoumarins by cathepsins was conducted in 96-well plate format and the plate read using a Spectramax (Molecular Devices) plate reader. The excitation wavelength was 355 nm and the emission wavelength was 460 nm for peptidyl-AMC substrates. The percent inhibition of the reaction was calculated from a control reaction containing only vehicle. IC50 curves were generated by fitting percent inhibition values to a four parameter logistic model (SOFTMAX PRO, Molecular Devices). EC50/IC50 values were obtained from whole cell enzyme occupancy assays for human cathepsins B (in HepG2 cells), L (in HepG2 cells), and S (in Ramos cells).

Assay [2] deals with Cathepsin S (Homo sapiens, UniProt P25774). Described as above. The settings on record: pH 6.5; 22 °C. On the procedure: as §1
Another assay concerns the target T1, Cathepsin K (Oryctolagus cuniculus, UniProt P43236).
T1 sequence (P43236 whole entry): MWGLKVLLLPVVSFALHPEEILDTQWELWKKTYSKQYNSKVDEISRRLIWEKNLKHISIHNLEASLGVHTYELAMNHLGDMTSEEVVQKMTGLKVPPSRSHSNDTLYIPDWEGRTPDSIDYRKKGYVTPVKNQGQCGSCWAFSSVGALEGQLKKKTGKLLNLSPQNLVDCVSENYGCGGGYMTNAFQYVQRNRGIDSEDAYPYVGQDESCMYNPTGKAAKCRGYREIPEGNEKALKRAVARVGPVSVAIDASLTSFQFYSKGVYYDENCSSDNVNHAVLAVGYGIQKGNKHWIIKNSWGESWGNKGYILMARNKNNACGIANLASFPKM
The assay is described as follows: Enzyme Inhibition Assay and Bone Resorption Assay. The note with it: pH 5.5; 22 °C. On the procedure:
Prior to the addition of substrate, different concentrations of the inhibitor ranging from 100 uM to 0.2 nM were preincubated for 15 min with enzyme to allow the establishment of the enzyme-inhibitor complex. […] The percent inhibition of the reaction was calculated from a control reaction containing only vehicle. IC50 curves were generated by fitting percent inhibition values to a four parameter logistic model (SOFTMAX PRO, Molecular Devices). EC50/IC50 values were obtained from functional rabbit bone resorption assay.

Sequence of Cathepsin S (Mouse, UniProt O70370) (O70370 whole entry): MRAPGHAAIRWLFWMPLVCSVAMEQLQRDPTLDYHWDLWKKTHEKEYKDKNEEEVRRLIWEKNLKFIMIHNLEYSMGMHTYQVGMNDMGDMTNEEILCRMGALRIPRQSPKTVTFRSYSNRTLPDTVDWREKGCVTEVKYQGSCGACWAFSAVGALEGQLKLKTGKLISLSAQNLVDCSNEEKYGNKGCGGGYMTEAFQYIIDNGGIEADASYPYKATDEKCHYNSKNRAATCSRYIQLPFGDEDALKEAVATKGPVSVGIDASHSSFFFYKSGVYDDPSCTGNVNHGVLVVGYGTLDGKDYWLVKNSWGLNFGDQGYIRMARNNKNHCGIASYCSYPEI
Sequence of Cathepsin S (Homo sapiens, UniProt P25774) (P25774 whole entry): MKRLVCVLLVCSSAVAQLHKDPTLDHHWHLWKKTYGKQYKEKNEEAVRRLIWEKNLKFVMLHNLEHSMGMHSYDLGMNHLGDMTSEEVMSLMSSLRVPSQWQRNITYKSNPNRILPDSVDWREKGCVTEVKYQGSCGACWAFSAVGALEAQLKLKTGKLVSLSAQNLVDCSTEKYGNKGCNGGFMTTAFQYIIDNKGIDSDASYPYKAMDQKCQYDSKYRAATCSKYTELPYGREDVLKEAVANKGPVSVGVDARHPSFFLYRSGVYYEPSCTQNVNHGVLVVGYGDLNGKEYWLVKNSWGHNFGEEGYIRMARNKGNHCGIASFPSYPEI
Sequence of Procathepsin L (P07711 whole entry): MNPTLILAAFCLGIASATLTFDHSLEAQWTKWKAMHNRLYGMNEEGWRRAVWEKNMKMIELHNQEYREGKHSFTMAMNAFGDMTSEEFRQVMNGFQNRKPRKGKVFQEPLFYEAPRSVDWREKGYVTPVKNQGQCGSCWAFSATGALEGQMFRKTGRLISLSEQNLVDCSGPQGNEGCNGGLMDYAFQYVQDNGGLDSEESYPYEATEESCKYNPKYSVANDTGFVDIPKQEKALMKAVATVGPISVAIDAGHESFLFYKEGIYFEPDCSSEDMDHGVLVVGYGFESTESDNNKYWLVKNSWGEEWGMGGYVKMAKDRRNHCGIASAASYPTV

On to `CCCN1CCN(c2ccc(C(=O)NC3(C(=O)NCC#N)CCCCC3)cc2)CC1` [N-[1-(cyanomethylcarbamoyl)cyclohexyl]-4-(4-propylpiperazin-1-yl)], for which the values for the concentration for a half-maximal effect (EC50) on Cathepsin S [1], on Procathepsin L and on Cathepsin S [2] were 0.48 µM, 0.048 µM and 2.9 µM, respectively.
For the compound `N#CCNC(=O)[C@H](CC1CCCCC1)NC(=O)c1ccccc1` [(2S)-N-(cyanomethyl)-3-cyclohexyl-2-(phenylformamido)propanamide], the values for the 50% effective concentration (EC50) on Cathepsin S [1], at Procathepsin L and on Cathepsin S [2] were 0.04 µM, 0.23 µM and 0.01 µM, respectively.
With `N#CCNC(=O)C1(NC(=O)c2ccc(N3CCOCC3)cc2)CCCCC1` [N-{1-[(cyanomethyl)carbamoyl]cyclohexyl}-4-(morpholin-4-yl)benzamide], the concentration giving a half-maximal response (EC50) on Cathepsin S [1] was 8.5 µM; at Cathepsin K it was 0.58 µM; at Procathepsin L, greater than 10 µM; on Cathepsin S [2], 4.8 µM.
As for `CN1CCN(c2nc(-c3ccc(C(=O)NC4(C(=O)NCC(F)(F)F)CCCCC4)cc3)cs2)CC1` [4-[2-(4-methylpiperazin-1-yl)-1,3-thiazol-4-yl]-N-{1-[(2,2,2-trifluoroethyl)carbamoyl]cyclohexyl}benzamide], the concentration for a half-maximal effect (EC50) at Cathepsin S [1] is greater than 10 µM.
Consider `N#CCNC(=O)C1(NC(=O)c2ccc(-c3csc(N4CCOCC4)n3)cc2)CCCCC1` [N-{1-[(cyanomethyl)carbamoyl]cyclohexyl}-4-[2-(morpholin-4-yl)-1,3-thiazol-4-yl]benzamide], for which the EC50 on Cathepsin S [1] is 6.7 µM; at Cathepsin K, 0.041 µM; at Procathepsin L it was greater than 10 µM; on Cathepsin S [2] it was greater than 10 µM.
In the case of `CN1CCN(c2nc(-c3ccc(C(=O)NC4(C(=O)NCC#N)CCCCC4)cc3)cs2)CC1` [N-{1-[(cyanomethyl)carbamoyl]cyclohexyl}-4-[2-(4-methylpiperazin-1-yl)-1,3-thiazol-4-yl]benzamide], the half-maximal effective concentration (EC50) at Cathepsin S [1] was found to be 0.318 µM; at Cathepsin K, 0.005 µM; on Procathepsin L, 0.34 µM; on Cathepsin S [2], 0.79 µM.
For the compound `CC(C)C[C@@H](C(=O)NCC#N)c1cccc(-c2ccc(N3CCNCC3)cc2)c1` [(2R)-N-(cyanomethyl)-4-methyl-2-{3-[4-(piperazin-1-yl)phenyl]phenyl}pentanamide], the concentration for a half-maximal effect (EC50) at Cathepsin S [1] was 0.74 µM; at Cathepsin K, 0.149 µM; at Procathepsin L, 0.32 µM; on Cathepsin S [2], 1.34 µM.

A word on the EC50: it is the concentration at which the effect is half-maximal. A lower EC50 goes with greater potency.
